These results are taken from patent US8530404B2, “Compounds and methods for treatment of cancer” (FibroGen, Inc., priority 2005, dated 2013).

The test system of experiment [1] is NDRG1 gene expression. Nature of the experiment: NDRG1 gene expression in Hep3B cells (Affymetrix microarray). In kind it is cell-based, human. Conditions: 25 μM, vs DMSO control. Here is the method: (§1) To identify compounds useful in the methods of the present invention, the following studies were performed. The effect of compounds of the present invention on expression of various genes associated with anti-tumor activity (e.g., genes having anti-proliferative activity, genes having pro-apoptotic activity, genes having anti-tumor activity, etc.). In these experiments, the effect of compounds on BNIP3, BNIP3L, NDRG1, CDKN1C, and REDD1/RTP801 gene expression in various types of cultured tumor cells line was examined, including Hep3B cells (human hepatocellular carcinoma), Kelly neuroblastoma cells, and MCF7 cells (human breast cancer)
(§2) The effects of various compounds of the present invention on the expression of genes associated with tumor growth and progression were examined in Hep3B cells as follows. Hep3B cells (ATCC) were cultured in DMEM containing 8% fetal bovine serum (FBS) and antibiotics. For each experiment, Hep3 cells were added to 6-well tissue culture dishes (approximately 500,000 cells per well). After 8 hours, the media was replaced with DMEM containing 0.5% FBS. Sixteen hours later, various compounds of the present invention were added to the cultured cells to a final concentration of 25 μM. The cells were then harvested and added to RNA extraction buffer (RNeasy, Qiagen). RNA was isolated from cell lysates using RNeasy Mini spin columns (Qiagen) according to the manufacturer's instructions. Changes in expression of various gene transcript levels associated with tumor growth and progression were determined by Affymetrix microarray. Labeled probes were prepared and hybridized to U133A Affyrnetrix microarrays.
(§3) Changes in gene expression levels in vitro following compound addition are presented as fold change relative to gene expression levels observed in control cells treated with DMSO only. Data represents the average of two independent studies.

Experiment [2] relates to BNIP3 gene expression. In words: BNIP3 gene expression in Hep3B cells (Affymetrix microarray). In kind it is cell-based, human. The note with it: 25 μM, vs DMSO control. Here is the method: as §1, §2, §3
For experiment [3], the system named is REDD1/RTP801 gene expression. In words: REDD1/RTP801 gene expression in Hep3B cells (Affymetrix microarray). The note with it: 25 μM, vs DMSO control. In kind it is cell-based, human. Here is the method:
as §1, §2, §3

The subject of experiment [4] is BNIP3L gene expression. In words: In vivo BNIP3L gene expression in Swiss Webster mice (quantitative PCR). The note with it: Mus musculus, iv, 4 h; kidney; single 60 mg/kg i.v. dose; four hours after administration; normalized to 18S; read-out: fold change in BNIP3L mRNA level. Here is the method:
(§4) The effects of various compounds of the present invention on the expression of genes associated with tumor growth and progression (e.g., expression of genes associated with anti-proliferative effects) were examined in vivo as follows. In these studies, male Swiss Webster mice (25 g) were administered a single intravenous (i.v.) dose of various compounds (60 mg/kg) of the present invention via the tail vein. Four hours after administration of compound, the kidneys and liver were removed and preserved in RNAlater (Ambion). RNA isolation and cDNA synthesis was carried out as follows. Murine kidney tissue was added to TRIzol (Invitrogen) and homogenized using a 5-mm stainless steel bead for 4 minutes at 25 Hz in a Mixer Mill 300 (Qiagen). Homogenates were extracted with chloroform according to the manufacturer's instructions and aqueous supernatants were isolated. The aqueous supernatants were combined with equal volumes of 70% ethanol and then loaded onto RNeasy Mini spin columns (Qiagen). RNA was isolated according to the manufacturer's instructions.
(§5) Synthesis of cDNA from the isolated total RNA was carried out using Omniscript reverse transcriptase (Qiagen) and random primers according to the manufacturer's instructions. Measurement of gene expression levels in compound-treated animals and in vehicle-treated control animals was performed by quantitative PCR using TaqMan Universal PCR Master Mix (Applied Biosystems) and TaqMan Assay-on-Demand assays (Applied Biosystems) in a Prism 7000 system instrument (Applied Biosystems), according to manufacturer's instructions. The assays used were as follows: 18S ribosomal RNA, Hs99999901_s1; BNIP3, Mm00833810_g1; BNIP3L, Mm00786306_s1; NDRG1, Mm00440447_m1. Each PCR amplification reaction included a standard curve and a water blank. Data for gene expression levels for BNIP3, BNIP3L, and NDRG1 were normalized to that of 18S ribosomal RNA within each sample. Data is presented as fold change in specific mRNA levels relative to that of non-treated control animals.

The test system of experiment [5] is BNIP3L gene expression. In words: BNIP3L gene expression in Hep3B cells (Affymetrix microarray). In kind it is cell-based, human. The note with it: 25 μM, vs DMSO control. Here is the method: as §1, §2, §3
Experiment [6] concerns CDKN1C gene expression. In words: CDKN1C gene expression in Kelly neuroblastoma cells. In kind it is cell-based. The note with it: Kelly cells; 20 μM; 20-24 hours; normalized to 18S RNA; vs DMSO control; read-out: fold-increase in CDKN1C mRNA expression. Here is the method: as §1
(§6) The effects of various compounds of the present invention on the expression of genes associated with tumor growth and progression were examined in Kelly neuroblastoma cells as follows. Kelly neuroblastoma cells were grown in RPMI media. For each experiment, Kelly neuroblastoma cells were added to 96-well tissue culture plates (approximately 40,000 cells per well) such that the plated cells reached confluence the following day. On the following day, the cells were washed and the media replaced with RPMI containing 0.5% FBS. Various compounds of the present invention were added to the cultured cells to a final concentration of 20 μM, and the cells cultured for an additional 20-24 hours. DMSO (0.5%) was added to control cell cultures.
(§7) RNA was isolated from the Kelly neuroblastoma cells using a commercial kit and used for the preparation of cDNA. BNIP3, CDKN1C, and 18S RNA levels were measured using commercial kits (18S, Applied Biosystems cat#4319413E); BNIP3, Applied Biosystems cat#HS00969293 MH). RNA levels for BNIP3 and CDKN1C were normalized to that of 18S RNA and is presented as fold-change compared to that observed in DMSO control cultures. Kelly cell NDRG1 and BNIP3L mRNA levels were measured by Affymetrix microarray in a separate study. Cells were harvested after 6 hours incubation with 20 μM test compound or DMSO (0.5%) as control. RNA was isolated and labeled probes were prepared and hybridized to U133 Plus 2.0 Affymetrix microarrays. Changes in gene expression levels are presented as fold change compared to that of control (0.5% DMSO-treated) cultures.

Experiment [7] relates to NDRG1 gene expression. In words: In vivo NDRG1 gene expression in Swiss Webster mice (quantitative PCR). The note with it: Mus musculus, iv, 4 h; kidney; single 60 mg/kg i.v. dose; four hours after administration; normalized to 18S; read-out: fold change in NDRG1 mRNA level. Here is the method:
as §4, §5

In experiment [8] the test system is BNIP3 gene expression. Nature of the experiment: In vivo BNIP3 gene expression in Swiss Webster mice (quantitative PCR). The note with it: Mus musculus, iv, 4 h; kidney; single 60 mg/kg i.v. dose; four hours after administration; normalized to 18S; read-out: fold change in BNIP3 mRNA level. Here is the method: as §4, §5
Experiment [9] relates to BNIP3 gene expression. Nature of the experiment: BNIP3 gene expression in Kelly neuroblastoma cells. The note with it: Kelly cells; 20 μM; 20-24 hours; normalized to 18S RNA; vs DMSO control; read-out: fold-increase in BNIP3 mRNA expression. In kind it is cell-based. Here is the method:
as §1, §6, §7

Experiment [10] concerns BNIP3 gene expression. In words: BNIP3 gene expression in MCF7 cells. In kind it is cell-based. The note with it: Homo sapiens; MCF7 cells; 20 μM; 20-24 hours; vs 0.5% DMSO control; read-out: fold-increase in BNIP3 mRNA expression. Here is the method: as §1
(§8) The effects of various compounds of the present invention on the expression of genes associated with tumor growth and progression were examined in MCF7 breast cancer cells as follows. In some experiments, MCF7 (ATCC) cells were plated in 96-well tissue culture dishes (approximately 20,000 cells per well) and cultured in DMEM media supplemented with 10% serum. The following day, the cells were washed and the media was replaced with DMEM containing 0.5% FBS. Various compounds of the present invention were added to the cultured cells to a final concentration of 20 μM, and the cells cultured for an additional 20-24 hours. DMSO (0.5%) was added to control cell cultures. RNA was isolated as described above. Changes in gene expression levels are presented as fold change compared to that of control (0.5% DMSO-treated) cultures.
In other experiments, MCF7 cells were plated in 96-well tissue culture dishes as described above. After 24 hours, the cells were washed and the media was replaced with DMEM containing 0.5% FBS. Various compounds of the present invention were added to the cultured cells to a final concentration of 20 μM. DMSO (0.5%) was added to control cell cultures. After 24 hours, changes in gene expression of BNIP3 and 18S RNA were determined directly using one-step quantitative multiplex RT-PCR reactions according to the manufacturer's instructions (QuantiTect Multiplex RT-PCR Kit, Qiagen, catalog no. 204643). Changes in gene expression levels are presented as fold change compared to that of control (0.5% DMSO-treated) cultures.

Experiment [11] deals with CDKN1C gene expression. In words: CDKN1C gene expression in MCF7 cells. In kind it is cell-based. The note with it: Homo sapiens; MCF7 cells; 20 μM; 20-24 hours; vs 0.5% DMSO control; read-out: fold-increase in CDKN1C mRNA expression. Here is the method: as §1, §8

With `O=C(O)CNC(=O)c1ncc2cc(Sc3ccccc3)ccc2c1O` [Compound N, [(4-hydroxy-7-phenylsulfanyl-isoquinoline-3-carbonyl)-amino]-acetic acid], the “fold-increase in NDRG1 mRNA expression” value in the experiment on NDRG1 gene expression [1] turned out to be 3.7 fold. In addition, the “fold-increase in BNIP3 mRNA expression” value in the experiment on BNIP3 gene expression [2] worked out at 3.6 fold. The “fold-increase in REDD1/RTP801 mRNA expression” value in experiment [3] worked out at 5.7 fold. Moreover, the fold induction at 60 mg/kg was 3.4 in the experiment on BNIP3L gene expression [4], 1.2 in the experiment on NDRG1 gene expression [7] and 3.1 in the experiment on BNIP3 gene expression [8]. For the same compound, the “fold-increase in BNIP3L mRNA expression” value with BNIP3L gene expression [5] was 2.8 fold. For the same compound, the fold induction at 20 µM with CDKN1C gene expression [6] was determined as 183; in the experiment with BNIP3 gene expression [9] it was 27.1; with BNIP3 gene expression [10] it was 4.9; with CDKN1C gene expression [11], 0.4.
